Assay results from US20260139003A1, “PEPTIDE WITH ACTIVITY OF PROMOTING HAIR GROWTH AND INHIBITING HAIR LOSS AND USE THEREOF” (CAREGEN CO., LTD., priority 2022, published 2026).
Where no end group is shown, it is not given here.

Assays:
[1] = tested on: Keratin 19; test: Keratin 19 gene expression in HHORSCs (RT-PCR); assay type: cell-based, human; settings: 500 nM, 5 μM, and 50 μM, 24 hours, FIG. 6
Experimental: (§1) The effect of the peptide prepared in Preparation Example 1 above on the activation of human hair outer root sheath cells (HHORSCs) was confirmed by measuring the gene expression of cytokeratin proteins.
(§2) HHORSCs were seeded in a 96-well cell culture plate at a density of 4×10^3 cells/well and cultured for 24 hours under mesenchymal stem cell complete media conditions. Then, the medium was replaced with serum free mesenchymal stem cell medium and cultured for additional 24 hours. The cultured cell culture was treated with 500 nM, 5 μM, and 50 μM of the peptide prepared in Preparation Example 1 above, respectively, and treated with 100 nM of epidermal growth factor (EGF) as a positive control, and negative when not treated with anything to serve as a negative control (con), and these cultures were cultured at 37° C. for 24 hours. After washing each culture with PBS, RNA was isolated by treatment with 300 μL of eaay blue (Intron, South Korea). The isolated RNA was quantified using Nano drop, and then subjected to cDNA synthesis using a cDNA synthesis kit (Enzynomics, South Korea). Then, a PCR reaction was performed using the primers shown in Table 3 below and a PCR premix (Enzynomics, South Korea). The PCR reaction product was electrophoresed on a 1.5% agarose gel, and the bands were detected using the Bio-Rad Gel Image System.

[2] = tested on: c-Myc; test: c-Myc gene expression in HHFDPCs (RT-PCR); assay type: cell-based, human; settings: 500 nM, 5 μM, and 50 μM, 24 hours, FIG. 4
Experimental: (§3) The effect of the peptide prepared in Preparation Example 1 above on the expression levels of lymphoid enhancer-binding factor 1 (LEF-1), c-Myc, and Cyclin D1, which are downstream genes of beta-catenin, in human hair follicle dermal papilla cells (HHFDPCs) was determined by the RT-PCR method.
(§4) HHFDPCs were seeded in a 6-well cell culture plate at a density of 4×10^5 cells/well and cultured for 24 hours under mesenchymal stem cell complete media conditions. Then, the medium was replaced with serum free mesenchymal stem cell medium and cultured for additional 24 hours. The cultured cell culture was treated with the peptide prepared in Preparation Example 1 above at 500 nM, 5 μM, and 50 μM, respectively, and treated with 10 ng/mL of rhWnt-3a (recombinant human Wnt-3a protein, R&D systems (MN, USA) to serve as a positive control, and not treated with anything to serve as a negative control (con), and each was cultured at 37° C. for additional 24 hours. After washing each culture with PBS, RNA was isolated therefrom by treatment with 300 μL of eaay blue (Intron, South Korea). The isolated RNA was quantified using Nano drop, and then subjected to cDNA synthesis using a cDNA synthesis kit (Enzynomics, South Korea). […] The PCR reaction product was electrophoresed on a 1.5% agarose gel, and the bands were detected using the Bio-Rad Gel Image System.

[3] = tested on: Ha3-II; test: Ha3-II gene expression in HHORSCs (RT-PCR); assay type: cell-based, human; settings: 500 nM, 5 μM, and 50 μM, 24 hours, FIG. 6
Experimental: as §1, §2

[4] = tested on: Cyclin D1; test: Cyclin D1 gene expression in HHFDPCs (RT-PCR); assay type: cell-based, human; settings: 500 nM, 5 μM, and 50 μM, 24 hours, FIG. 4
Experimental: as §3, §4

[5] = tested on: Keratin 14; test: Keratin 14 gene expression in HHORSCs (RT-PCR); assay type: cell-based, human; settings: 500 nM, 5 μM, and 50 μM, 24 hours, FIG. 6
Experimental: as §1, §2

[6] = tested on: LEF-1; test: LEF-1 gene expression in HHFDPCs (RT-PCR); assay type: cell-based, human; settings: 500 nM, 5 μM, and 50 μM, 24 hours, FIG. 4
Experimental: as §3, §4

[7] = tested on: Akt; test: Akt phosphorylation in HHFDPCs (Western blot); assay type: cell-based, human; settings: 500 nM, 5 μM, and 50 μM, 24 hours, FIG. 2
Experimental: (§5) The effect of the peptide prepared in Preparation Example 1 above on the activation of proliferation-related signaling molecules in human hair follicle dermal papilla cells (HHFDPCs) was confirmed by Western blot method.
(§6) HHFDPCs were seeded in a 6-well cell culture plate at a density of 4×10^5 cells/well and cultured for 24 hours under mesenchymal stem cell complete media conditions. Then, the medium was replaced with serum-free mesenchymal stem cell medium and cultured for additional 24 hours. The cultured cell culture was treated with the peptide prepared in Preparation Example 1 above at 500 nM, 5 μM, and 50 μM, respectively, 1 μM of Minoxidil (MNX) was treated to serve as a positive control, and not treated with anything to serve as a negative control (con), and the cultures treated with these materials were cultured at 37° C. for additional 24 hours. After washing each culture with PBS, the cells were lysed by treatment with lysis buffer to obtain a cell lysate. Equal amounts of protein samples were prepared by BCA quantification of cell lysates. The prepared protein samples were subjected to electrophoresis using 10% SDS-PAGE. […] The resultant was washed 3 times for 15 minutes each with 0.1% PBS-T (0.1% Tween-20 in PBS), treated with ECL solution (GE Healthcare, USA), and detected with a film.

[8] = tested on: extracellular-regulated kinase (ERK); test: ERK phosphorylation in HHFDPCs (Western blot); assay type: cell-based, human; settings: 500 nM, 5 μM, and 50 μM, 24 hours, FIG. 2
Experimental: as §5, §6

[9] = tested on: beta-catenin; test: Activation of beta-catenin in HHFDPCs (nuclear protein Western blot); assay type: cell-based, human; settings: 500 nM, 5 μM, and 50 μM, 24 hours, nuclear proteins, FIG. 3
Experimental: The effect of the peptide prepared in Preparation Example 1 above on the activation of beta-catenin in human hair follicle dermal papilla cells (HHFDPCs) was confirmed by Western blot method.
HHFDPCs were seeded in a 6-well cell culture plate at a density of 4×10^5 cells/well and cultured for 24 hours under mesenchymal stem cell complete media conditions. Then, the medium was replaced with serum-free mesenchymal stem cell medium and cultured for additional 24 hours. The cultured cell culture was treated with the peptide prepared in Preparation Example 1 above at 500 nM, 5 μM, and 50 μM, respectively, and treated with 10 ng/mL of rhWnt-3a (recombinant human Wnt-3a protein, R&D systems (MN, USA) to serve as a positive control, and not treated with anything to serve as a negative control (con). The cultures treated with these materials were incubated at 37° C. for additional 24 hours. After washing each culture with PBS, nuclear proteins were isolated using a nuclear protein extraction kit (Thermo scientific, USA), and an equal amount of protein sample was prepared by BCA quantification. The prepared protein samples were subjected to electrophoresis using 10% SDS-PAGE. […] The resultant was washed 3 times for 15 minutes each with 0.1% PBS-T (0.1% Tween-20 in PBS), treated with ECL solution (GE Healthcare, USA), and detected with a film.

[10] = tested on: human hair follicle dermal papilla cells (HHFDPCs); test: Proliferation of HHFDPCs (MTT); assay type: cell-based; settings: 500 nM, 5 μM, and 50 μM, 72 hours, absorbance 540 nm, FIG. 1
Experimental: The effect of the peptide prepared in Preparation Example 1 above on the proliferation of human hair follicle dermal papilla cells (HHFDPCs) was tested.
HHFDPCs were seeded in a 96-well cell culture plate at a density of 4×10^3 cells/well and cultured for 24 hours under mesenchymal stem cell complete media conditions. Then, the medium was replaced with serum-free mesenchymal stem cell medium and cultured for additional 24 hours. The cultured cell culture was treated with the peptide prepared in Preparation Example 1 above at 500 nM, 5 μM, and 50 μM, respectively, treated with 1 μM VEGF to serve as a positive control, and not treated with anything to serve as a negative control (con), and these cultures were cultured at 37° C. for additional 72 hours. Thereafter, 10 μL of MTT solution (5 mg/mL) was added thereto, and the mixture was incubated in a CO2 incubator at 37° C. for 4 hours, the medium was removed, and 100 μL of DMSO was added thereto and shaken for 10 minutes. Finally, the absorbance was measured at a wavelength of 540 nm using a spectrophotometer (Molecular Devices (SpectraMax iD3, CA, USA)).

[11] = tested on: MSX2; test: MSX2 expression in HHGMCs (RT-PCR); assay type: cell-based, human; settings: 500 nM, 5 μM, and 50 μM, 24 hours, FIG. 7
Experimental: (§7) The effect of the peptide prepared in Preparation Example 1 above on the activation of human hair germinal matrix cells (HHGMCs) was confirmed by measuring the expression of MSX2, Homeobox C13 (HOXC13), and Forkhead Box N1 (FOXN1), which are transcription factors related to cell activation.
as §2, with “HHGMCs” for “HHORSCs”, “6-well” for “96-well”, “4×10^5” for “4×10^3”, “Then, a PCR reaction was performed using the primers shown in Table 3 below and a PCR premix (Enzynomics, South Korea).” left out

[12] = tested on: FOXN1; test: FOXN1 expression in HHGMCs (RT-PCR); assay type: cell-based, human; settings: 500 nM, 5 μM, and 50 μM, 24 hours, FIG. 7
Experimental: as §7
as §2, with “HHGMCs” for “HHORSCs”, “6-well” for “96-well”, “4×10^5” for “4×10^3”, “Then, a PCR reaction was performed using the primers shown in Table 3 below and a PCR premix (Enzynomics, South Korea).” left out

[13] = tested on: DKK-1; test: Expression of hair loss protein DKK-1 induced by DHT in HHFDPCs (Western blot); assay type: cell-based, human; settings: 500 nM, 5 μM, and 50 μM, DHT 100 nM simultaneously, 24 hours, FIG. 5
Source text: It is known that in hair follicles, dihydrotestosterone (DHT) promotes the expression of Dickkopf-1 (DKK-1), and DKK-1 induced by DHT inhibits the proliferation of keratinocytes in hair follicles and causes their apoptosis, thereby promoting hair loss (J of Invest Dermatolo. 2008, February, 128(2), pp. 262-269). The effect of the peptide prepared in Preparation Example 1 above on the expression level of the hair loss-inducing protein DKK-1 in human hair follicle dermal papilla cells (HHFDPCs) was confirmed by Western blot method.
HHFDPCs were seeded in a 6-well cell culture plate at a density of 4×10^5 cells/well and cultured for 24 hours under mesenchymal stem cell complete media conditions. Then, the medium was replaced with serum-free mesenchymal stem cell medium and cultured for additional 24 hours. The cultured cell culture was treated with 500 nM, 5 μM, and 50 μM of the peptide prepared in Preparation Example 1 above, respectively. treated with 5 μM of finasteride to serve as a positive control, and not treated with anything to serve as a negative control group (con). […] Equal amounts of protein samples were prepared by BCA quantification of cell lysates. […] The resultant was washed 3 times for 15 minutes each with 0.1% PBS-T (0.1% Tween-20 in PBS), treated with ECL solution (GE Healthcare, USA), and detected with a film.

[14] = tested on: Keratin 5; test: Keratin 5 gene expression in HHORSCs (RT-PCR); assay type: cell-based, human; settings: 500 nM, 5 μM, and 50 μM, 24 hours, FIG. 6
Experimental: as §1, §2

[15] = tested on: HOXC13; test: HOXC13 expression in HHGMCs (RT-PCR); assay type: cell-based, human; settings: 500 nM, 5 μM, and 50 μM, 24 hours, FIG. 7
Experimental: as §7
as §2, with “HHGMCs” for “HHORSCs”, “6-well” for “96-well”, “4×10^5” for “4×10^3”, “Then, a PCR reaction was performed using the primers shown in Table 3 below and a PCR premix (Enzynomics, South Korea).” left out

## RHVLKRR [peptide of Preparation Example 1]
[1]
  expression of Keratin 19: increasing
[2]
  gene expression of c-Myc: increased
[3]
  expression of Ha3-II: increasing
[4]
  gene expression of Cyclin D1: increased
[5]
  expression of Keratin 14: increasing
[6]
  gene expression of LEF-1: increased
[7]
  phosphorylation of Akt: increased
[8]
  phosphorylation of extracellular-regulated kinase (ERK): increased
[9]
  beta-catenin activation and movement to the nucleus: activated and its movement to the nucleus was increased
[10]
  proliferation of HHFDPCs compared to the negative control (con): promoted the proliferation
[11]
  expression of MSX2: increased
[12]
  expression of FOXN1: increased
[13]
  expression of DKK-1 induced by DHT treatment: reduced in a concentration-dependent manner
[14]
  expression of Keratin 5: increasing
[15]
  expression of HOXC13: increased
